The values below come from patent US9169252B2 (BRISTOL-MYERS SQUIBB COMPANY, priority 2014, dated 2015).

In one assay the target is IRAK4 (Homo sapiens (Human), UniProt Q9NWZ3). Description: IRAK4 Inhibition Assay. The following applies: IRAK4 Inhibition Assay; ATP 500 μM; read-out: IRAK4 IC50. Type of assay: biochemical. The procedure, abridged: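 IRAK4 combined with fluorescent substrate and compounds, reacted 60 min at room temperature, stopped with 35 mM EDTA. Substrate and phosphorylated product separated electrophoretically on a Caliper LabChip 3000 mobility-shift reader.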
Chain of IRAK4 (Q9NWZ3 whole entry, species assumed): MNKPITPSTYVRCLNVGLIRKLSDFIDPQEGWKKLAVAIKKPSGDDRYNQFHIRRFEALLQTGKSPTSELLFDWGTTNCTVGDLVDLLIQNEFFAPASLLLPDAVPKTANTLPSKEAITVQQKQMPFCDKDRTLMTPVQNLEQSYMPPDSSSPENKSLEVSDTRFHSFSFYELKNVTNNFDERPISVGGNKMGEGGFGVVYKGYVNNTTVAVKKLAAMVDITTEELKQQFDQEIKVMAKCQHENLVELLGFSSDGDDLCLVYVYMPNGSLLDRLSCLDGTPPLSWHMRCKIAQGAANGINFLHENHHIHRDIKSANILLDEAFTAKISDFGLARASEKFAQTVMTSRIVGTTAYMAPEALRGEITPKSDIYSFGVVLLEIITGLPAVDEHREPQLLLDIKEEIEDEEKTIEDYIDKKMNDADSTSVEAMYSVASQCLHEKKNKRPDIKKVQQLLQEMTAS

Assay [1] deals with TLR2 induced IL-6 in peripheral blood mononuclear cells (PBMCs). Description: PBMC TLR2 Induced IL-6 Assay. As to conditions: Homo sapiens, PBMC, PBMC TLR2 Induced IL-6 Assay, lipoteichoic acid stimulation, IL-6 by ELISA; for pEC50: read-out: Cell EC50; for pIC50: read-out: Cell IC50. Type of assay: cell-based, human. The procedure, abridged:
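Lipoteichoic acid at 10 µg/ml served as TLR2 stimulus for 5 hours, following a 30-minute compound pretreatment at 37° C. Cells were Ficoll-isolated human PBMCs, 250000 cells/well, cultured in RPMI plus 10% heat-inactivated FCS.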
In general terms: In an ELISA, binding on a coated surface is turned into a signal by an enzyme label.

pEC50, pIC50: −log10 of the molar value.

Take `Cn1nnnc1-c1ccc(Nc2cc(-n3ccc4cc(C#N)cnc43)ncc2C(=O)NC[C@@H](F)C(C)(C)O)cc1` [Example 69, (R)-6-(5-cyano-1H-pyrrolo[2,3-b]pyridin-1-yl)-N-(2-fluoro-3-hydroxy-3-methylbutyl)-4-((4-(1-methyl-1H-tetrazol-5-yl)phenyl)amino)nicotinamide]: the pIC50 at IRAK4 was 8.89. Moreover, the pEC50 in assay [1] was 7.30.
Consider `CC(C)Nc1cc(-n2ccc3cc(C#N)cnc32)ncc1C(=O)NCC(=O)NC1CCS(=O)(=O)C1` (centres unmarked) [Example 70, 6-(5-cyano-1H-pyrrolo[2,3-b]pyridin-1-yl)-N-(2-((1,1-dioxidotetrahydrothiophen-3-yl)amino)-2-oxoethyl)-4-(isopropylamino)nicotinamide], for which the pIC50 on IRAK4 is 8.55. Besides, the pEC50 in assay [1] was 6.68.
Taken in the same sequence, the figures for `CC(C)(O)[C@H](F)CNC(=O)c1cnc(-n2ccc3cc(C#N)cnc32)cc1Nc1cccc(CO)c1` [Example 71, (R)-6-(5-cyano-1H-pyrrolo[2,3-b]pyridin-1-yl)-N-(2-fluoro-3-hydroxy-3-methylbutyl)-4-((3-(hydroxymethyl)phenyl)amino)nicotinamide] were 8.82 and 7.55.
Consider `CC(F)[C@H](C)Nc1cc(-n2ccc3cc(C#N)cnc32)ncc1C(=O)NC[C@@H](F)C(C)(C)O` (stereo partly drawn) [Example 72, 6-(5-cyano-1H-pyrrolo[2,3-b]pyridin-1-yl)-N—((R)-2-fluoro-3-hydroxy-3-methylbutyl)-4-(((2S)-3-fluorobutan-2-yl)amino) nicotinamide], for which, on IRAK4, the pIC50 was 8.70. Also, the pEC50 in assay [1] was 7.14.
Taken in the same sequence, the figures for `CC(C)Nc1cc(-n2ccc3cc(C#N)cnc32)ncc1C(=O)NC1CCc2nc(N)sc2C1` (centres unmarked) [Example 73, N-(2-amino-4,5,6,7-tetrahydrobenzo[d]thiazol-6-yl)-6-(5-cyano-1H-pyrrolo[2,3-b]pyridin-1-yl)-4-(isopropylamino)nicotinamide] were 7.88 and 6.72.
`CC(C)Nc1cc(-n2ccc3cccnc32)ncc1C(=O)NC[C@@H](F)C(C)(C)O` [Example 74, (R)—N-(2-fluoro-3-hydroxy-3-methylbutyl)-4-(isopropylamino)-6-(1H-pyrrolo[2,3-b]pyridin-1-yl)nicotinamide]: the pIC50 at IRAK4 is 8.37; in assay [1] it was 6.27.
Taken in the same sequence, the figures for `CC(C)Nc1cc(-n2ccc3cc(C#N)cnc32)ncc1C(=O)NC[C@@H](F)C(C)(C)O` [Example 75, (R)-6-(5-cyano-1H-pyrrolo[2,3-b]pyridin-1-yl)-N-(2-fluoro-3-hydroxy-3-methylbutyl)-4-(isopropylamino)nicotinamide] were 8.12 and 7.66.
In the same order, the values of `CC(C)(O)CNc1cc(-n2ccc3cc(C#N)cnc32)ncc1C(=O)NC[C@@H](F)C(C)(C)O` [Example 77, (R)-6-(5-cyano-1H-pyrrolo[2,3-b]pyridin-1-yl)-N-(2-fluoro-3-hydroxy-3-methylbutyl)-4-((2-hydroxy-2-methylpropyl)amino)nicotinamide] are 8.59 and 6.79.
On to `CC(CF)Nc1cc(-n2ccc3cc(C#N)cnc32)ncc1C(=O)NC[C@@H](F)C(C)(C)O` (stereo partly drawn) [Example 78, 6-(5-cyano-1H-pyrrolo[2,3-b]pyridin-1-yl)-N—((R)-2-fluoro-3-hydroxy-3-methylbutyl)-4-((1-fluoropropan-2-yl)amino)nicotinamide], for which the pIC50 is 8.54 on IRAK4 and 7.20 in assay [1].
With `CNC(=O)[C@H]1CC[C@H](NC(=O)c2cnc(-n3ccc4cc(C#N)ccc43)cc2NC(C)C)CC1` [Example 79, 6-(5-Cyano-1H-indol-1-yl)-4-(isopropylamino)-N-((trans)-4-(methylcarbamoyl)cyclohexyl)nicotinamide], the pIC50 at IRAK4 was 7.94. Further, in assay [1], the pEC50 was 6.36 and the pIC50 is 6.36.
Consider `CNC(=O)[C@H]1CC[C@H](NC(=O)c2cnc(-n3ccc4cc(C#N)cnc43)cc2NC(C)C)CC1` [Example 80, 6-(5-cyano-1H-pyrrolo[2,3-b]pyridin-1-yl)-4-(isopropylamino)-N-((trans)-4-(methylcarbamoyl)cyclohexyl)nicotinamide], for which the pIC50 at IRAK4 was 8.96. For the same molecule, in assay [1], the pEC50 is 6.78 and the negative-log IC50 (pIC50) was 7.10.
In the same order, the values of `CNC(=O)[C@H]1CC[C@H](NC(=O)c2cnc(-n3ccc4cncnc43)cc2NC(C)C)CC1` [Example 81, 4-(isopropylamino)-N-((trans)-4-(methylcarbamoyl)cyclohexyl)-6-(7H-pyrrolo[2,3-d]pyrimidin-7-yl)nicotinamide] are 7.85, 6.92 and 6.25.
In the same order, the values of `CNC(=O)[C@H]1CC[C@H](NC(=O)c2cnc(-n3ccc4cncnc43)cc2NC2CCOCC2)CC1` [Example 82, N-((trans)-4-(methylcarbamoyl)cyclohexyl)-6-(7H-pyrrolo[2,3-d]pyrimidin-7-yl)-4-((tetrahydro-2H-pyran-4-yl)amino)nicotinamide] are 8.36, 6.78 and 6.24.
Taken in the same sequence, the figures for `CC(=O)N[C@H]1CC[C@H](NC(=O)c2cnc(-n3ccc4cncnc43)cc2NC2CCOCC2)CC1` [Example 83, N-((trans)-4-acetamidocyclohexyl)-6-(7H-pyrrolo[2,3-d]pyrimidin-7-yl)-4-((tetrahydro-2H-pyran-4-yl)amino)nicotinamide] were 8.31, 6.35 and 6.11.
Regarding `CC(=O)N[C@H]1CC[C@H](NC(=O)c2cnc(-n3ccc4cncnc43)cc2NC(C)C)CC1` [Example 84, N-((trans)-4-acetamidocyclohexyl)-4-(isopropylamino)-6-(7H-pyrrolo[2,3-d]pyrimidin-7-yl)nicotinamide], on IRAK4, the pIC50 is 8.03. For the same molecule, in assay [1], the negative logarithm of the EC50 (pEC50) was 5.70 and the pIC50 was 5.70.
Take `CNC(=O)[C@H]1CC[C@H](NC(=O)c2cnc(-n3ccc4cc(C#N)cnc43)cc2NC2CC2)CC1` [Example 85, 6-(5-cyano-1H-pyrrolo[2,3-b]pyridin-1-yl)-4-(cyclopropylamino)-N-((trans)-4-(methylcarbamoyl)cyclohexyl) nicotinamide]: the pIC50 at IRAK4 was 7.88. The pEC50 in assay [1] is 6.28.
Taken in the same sequence, the figures for `CC(=O)N[C@H]1CC[C@H](NC(=O)c2cnc(-n3ccc4cc(C#N)cnc43)cc2NC2CC2)CC1` [Example 87, N-((trans)-4-acetamidocyclohexyl)-6-(5-cyano-1H-pyrrolo[2,3-b]pyridin-1-yl)-4-(cyclopropylamino)nicotinamide] were 8.72 and 7.20.
In the same order, the values of `CC(=O)N[C@H]1CC[C@H](NC(=O)c2cnc(-n3ccc4cc(C#N)cnc43)cc2NC2CCOCC2)CC1` [Example 88, N-((trans)-4-acetamidocyclohexyl)-6-(5-cyano-1H-pyrrolo[2,3-b]pyridin-1-yl)-4-((tetrahydro-2H-pyran-4-yl)amino)nicotinamide] are 8.15 and 6.46.
Taken in the same sequence, the figures for `CNC(=O)[C@H]1CC[C@H](NC(=O)c2cnc(-n3ccc4cc(C#N)cnc43)cc2N[C@@H](C)CO)CC1` [Example 89, 6-(5-cyano-1H-pyrrolo[2,3-b]pyridin-1-yl)-4-(((S)-1-hydroxypropan-2-yl)amino)-N-((1r,4S)-4-(methylcarbamoyl)cyclohexyl)nicotinamide] were 8.48 and 7.05.

In general, pIC50 refers to the IC50 on a negative log10 scale, so that one unit is a factor of ten. The term pEC50 denotes −log10 of the EC50, conventionally taken in molar units.
